The record followed here is PubChem BioAssay (NCI).

Assay in all cases: NCI tumour cell line growth inhibition, 48 h
Experiment [1] relates to HL-60(TB) leukemia.
Experiment [2] has as its system SR leukemia.
The test system of experiment [3] is T-47D breast.
In experiment [4] the test system is EKVX NSCLC.
The subject of experiment [5] is CAKI-1 renal.
For experiment [6], the system named is U251 CNS.
In experiment [7] the test system is KM12 colon.
Experiment [8] relates to ACHN renal.
Experiment [9] relates to SNB-75 CNS.
Experiment [10] relates to 786-0 renal.

“And” between values parts separate entries of the source, which are not always exact repeats. Equal entries are not always repeated.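 Protocol summary: plate cells (96-well), add compound at 5 concentrations, incubate 48 h, interpolate endpoints linearly. Here, GI50 denotes the concentration required for 50% inhibition of growth. TGI marks complete inhibition of growth.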

For the molecule `CN(O)c1nc(N(C)O)nc(N2CCOCC2)n1`, the GI50 in [1] was 16 µM; in [2], 4.01 µM; in experiment [3] it was 8.07 µM; in experiment [4] it was 1.9 µM; in experiment [5], 1.08 µM; in [6] it was 1.25 µM. Besides, the GI50 in experiment [7] is 15.5 µM; in [8], 1.1 µM; in [9], 27.2 µM; in experiment [10] it was 3.47 µM. Moreover, the TGI in [1], in experiment [2], in experiment [3], in [4], in experiment [5] and in experiment [6] was greater than 100 µM in each case. Besides, the TGI in experiment [7] is greater than 100 µM; in [8] it was greater than 100 µM; in experiment [9] it was greater than 100 µM; in experiment [10] it was 74 µM.
`COc1c(C)c2c(c(O)c1C/C=C(\C)CCC(=O)O)C(=O)OC2`: the GI50 in experiment [1] is 0.639 µM; in experiment [2], 0.158 µM; in experiment [3] it was 0.663 µM; in experiment [4], 0.892 µM; in experiment [5], 0.134 µM; in experiment [6], 0.0905 µM. Further, the GI50 in experiment [7] is 0.374 µM; in [8] it was 0.457 µM; in experiment [9] it was 0.938 µM; in experiment [10], 0.326 µM. Moreover, the TGI in experiment [1] is greater than 100 µM; in experiment [2], greater than 100 µM; in experiment [3], greater than 100 µM; in experiment [4], greater than 100 µM; in experiment [5], 14.7 µM; in experiment [6] it was greater than 100 µM. Moreover, the TGI in [7], in [8], in experiment [9] and in [10] was greater than 100 µM in each case.
As for `C=C1CCC2C3(C)COC(c4ccc(N(C)C)cc4)OC3CCC2(C)C1C/C=C1/C(=O)OCC1O` (stereo not given), the GI50 in experiment [1] was 1.36 µM; in [2], 1.15 µM; in experiment [3], 6.91 µM; in experiment [4] it was 6.43 µM; in experiment [5] it was 2.12 µM; in experiment [6], 2.1 µM. Further, the GI50 in experiment [7] was 2.62 µM; in [8], 9.16 µM; in experiment [9] it was 1.94 µM; in [10], 10.5 µM. Also, the TGI was determined as 3.6 µM in [1]; 3.77 µM in experiment [2]; 26.3 µM in experiment [3]; 21.9 µM in [4]; 5.66 µM in [5]; 5.21 µM in experiment [6]. For the same molecule, the TGI in experiment [7] was determined as 7.58 µM; in [8], 21.4 µM; in experiment [9], 7.97 µM; in [10] it was 25.3 µM.
As for `FC(F)(F)c1ccc(Nc2nc(-c3c(C(F)(F)F)nc4ccccn34)cs2)cc1`, the GI50 in [1] was 0.0406 µM; in experiment [2] it was 0.0402 µM; in experiment [3], 0.0453 µM; in experiment [4] it was 0.158 µM; in experiment [5], 0.0419 µM; in experiment [6], 0.0764 µM. Further, the GI50 was 0.0393 µM in experiment [7], 0.061 µM in experiment [8], 0.0291 µM in experiment [9] and 0.0398 µM in experiment [10]. Further, the TGI in [1] was 2.25 µM; in experiment [2] it was greater than 39.4 µM; in experiment [3], 9.07 µM; in experiment [4] it was 7.84 µM; in experiment [5], 8.2 µM; in experiment [6], 11 µM. The TGI was found to be 4.23 µM in [7], 6.83 µM in [8], 1.05 µM in [9] and 2.22 µM in [10].
As for `CCN(CC)CCCC(C)Nc1ccnc2cc(Oc3ccccc3)ccc12` (stereo not given), the GI50 in [1] was 3.24 µM and 13.1 µM; in experiment [2], 2.6 µM and 2.27 µM; in experiment [3] it was 1.68 µM and 2.39 µM; in [4] it was 14.1 µM and 18.6 µM; in experiment [5], 13.1 µM and 5.96 µM; in experiment [6] it was 2.71 µM and 5.51 µM. Further, the GI50 is 8.52 µM and 10.6 µM in experiment [7]; 5.61 µM and 6.72 µM in experiment [8]; 2.04 µM and 10.9 µM in [9]; 4.53 µM and 5.09 µM in [10]. Besides, the TGI in experiment [1] was 9.38 µM and 41.6 µM; in experiment [2], 12.9 µM and 6.66 µM; in experiment [3] it was 3.32 µM and 6.19 µM; in [4] it was 31.8 µM and 98.7 µM; in experiment [5], 37.9 µM and 36.2 µM; in [6], 9.31 µM and 19.8 µM. Moreover, the TGI in [7] is 24.3 µM and > 100 µM; in experiment [8], 26.2 µM and 29 µM; in experiment [9], 15.1 µM and 25.4 µM; in [10], 11.6 µM and 17.4 µM.
`COc1cc2c(cc1C)NC(=O)/C2=C/c1ccccn1`: the GI50 in experiment [1] was 5.35 µM; in [2] it was 3.18 µM; in experiment [3] it was 19.3 µM; in experiment [4], 0.0532 µM; in experiment [5], 2.72 µM; in [6], 2.92 µM. The GI50 was 2.48 µM in [8], 8.52 µM in [9] and 2.48 µM in experiment [10]. For the same molecule, the TGI in [1] was greater than 100 µM; in experiment [2], greater than 100 µM; in experiment [3], greater than 100 µM; in experiment [4], 6.88 µM; in experiment [5], 9.59 µM; in experiment [6], greater than 100 µM. For the same molecule, the TGI in [8] was 35.6 µM; in [9], greater than 100 µM; in [10] it was 8.38 µM.
On to `CN[C@@H](C)C(=O)N[C@H](C(=O)N1CCC[C@H]1C(=O)Nc1snnc1-c1ccccc1)C1CCCCC1`, for which the GI50 in experiment [1] was 21.7 µM; in experiment [2], 20.7 µM; in experiment [3] it was 57.5 µM; in [5], 68 µM; in experiment [6], 36.3 µM; in [7], 34.4 µM. The GI50 is 52.7 µM in experiment [8], 25.4 µM in [9] and 62.8 µM in experiment [10]. Besides, the TGI in experiment [1] was 48.1 µM; in experiment [2] it was greater than 69.7 µM; in experiment [3], greater than 100 µM; in [5], greater than 100 µM; in experiment [6], greater than 100 µM; in [7] it was greater than 100 µM. Further, the TGI in experiment [8] is greater than 100 µM; in experiment [9], greater than 94.4 µM; in experiment [10], greater than 100 µM.
With `CC(=O)OCC1OC(n2cnc(C(N)=S)c2N)C(OC(C)=O)C1OC(C)=O` (stereo not given), the TGI in experiment [1], in [2], in [3], in [5], in experiment [6] and in [7] was greater than 100 µM in each case. In addition, the TGI in experiment [8], in [9] and in [10] was greater than 100 µM throughout.
